One test concerns the target CK1ε (Homo sapiens (Human), UniProt P49674). As to the kind of experiment: CK1ε kinase assay (Caliper LabChip, fluoresceinated peptide substrate). The class given is biochemical. The settings on record: 200 pM CK1ε, 50 μM ATP, 1.5 μM peptide substrate, 22 hours room temperature. The protocol: (§1) CK1ε and CK1δ Kinase Assays
(§2) The kinase assay was performed in V-bottom 384-well plates. […] The reaction was incubated at room temperature for 22 hours and terminated by adding 45 μl of 35 mM EDTA to each sample. […] Compounds were dissolved at 10 mM in dimethylsulfoxide (DMSO) and evaluated at eleven concentrations. IC50 values were derived by non-linear regression analysis.

The target in the next test is CK1δ (Homo sapiens (Human), UniProt P48730). As to the kind of experiment: CK1δ kinase assay (Caliper LabChip, fluoresceinated peptide substrate). In kind it is biochemical. The settings on record: 200 pM CK1δ, 50 μM ATP, 1.5 μM peptide substrate, 22 hours room temperature. On the procedure:
as §1, §2

By IC50 is commonly meant the midpoint of a concentration-inhibition curve.

Sequence of CK1ε (P49674 whole entry): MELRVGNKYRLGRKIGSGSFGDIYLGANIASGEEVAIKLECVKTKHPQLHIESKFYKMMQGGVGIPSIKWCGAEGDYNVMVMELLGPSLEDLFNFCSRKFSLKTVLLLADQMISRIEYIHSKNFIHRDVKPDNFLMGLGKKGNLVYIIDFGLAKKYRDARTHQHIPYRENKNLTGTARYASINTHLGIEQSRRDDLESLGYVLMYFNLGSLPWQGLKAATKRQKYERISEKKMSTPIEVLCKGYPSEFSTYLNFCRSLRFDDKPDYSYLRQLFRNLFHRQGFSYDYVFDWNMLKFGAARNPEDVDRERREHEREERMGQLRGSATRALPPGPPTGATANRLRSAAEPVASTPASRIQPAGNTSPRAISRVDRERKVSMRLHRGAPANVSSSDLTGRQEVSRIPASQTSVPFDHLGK
Sequence of CK1δ (P48730 whole entry): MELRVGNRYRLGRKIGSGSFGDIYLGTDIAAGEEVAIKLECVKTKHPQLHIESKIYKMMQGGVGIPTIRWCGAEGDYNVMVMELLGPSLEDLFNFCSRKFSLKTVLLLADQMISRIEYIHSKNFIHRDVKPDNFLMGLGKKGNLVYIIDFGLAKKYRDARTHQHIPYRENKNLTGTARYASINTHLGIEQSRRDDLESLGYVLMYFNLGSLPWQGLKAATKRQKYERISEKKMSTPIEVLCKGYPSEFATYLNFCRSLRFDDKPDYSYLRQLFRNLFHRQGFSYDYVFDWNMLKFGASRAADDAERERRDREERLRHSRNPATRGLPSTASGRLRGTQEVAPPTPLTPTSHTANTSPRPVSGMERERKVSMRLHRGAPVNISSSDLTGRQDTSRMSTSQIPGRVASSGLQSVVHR

As to `COc1ccc(F)c(C(=O)Nc2cn3nc(-c4cn(C)nc4-c4ccc(F)cc4)ccc3n2)c1` [Compound 44, 2-fluoro-N-(6-(3-(4-fluorophenyl)-1-methyl-1H-pyrazol-4-yl)imidazo[1,2-b]pyridazin-2-yl)-5-methoxybenzamide], the results for the IC50 at CK1ε and against CK1δ were 21.2 nM and 5.6 nM, respectively.

Regarding `Cn1nc(-c2ccc(F)cc2)c(-c2ccc3nc(NC(=O)c4ccnc(F)c4)cn3n2)c1C1CCN(CC(N)=O)CC1` [Compound 157, N-(6-(5-(1-(2-Amino-2-oxoethyl)piperidin-4-yl)-3-(4-fluorophenyl)-1-methyl-1H-pyrazol-4-yl)imidazo[1,2-b]pyridazin-2-yl)-2-fluoroisonicotinamide], the values for the IC50 on CK1ε and at CK1δ were 1.3 nM and 0.3 nM, respectively.

Regarding `Cn1nc(-c2ccc(F)cc2)c(-c2ccc3nc(NC(=O)c4ccnc(F)c4)cn3n2)c1N1CCN(C(=O)CN)CC1` [Compound 123, N-(6-(5-(4-(2-Aminoacetyl)piperazin-1-yl)-3-(4-fluorophenyl)-1-methyl-1H-pyrazol-4-yl)imidazo[1,2-b]pyridazin-2-yl)-2-fluoroisonicotinamide], the figures for the IC50 at CK1ε and against CK1δ were 0.2 nM and 0.1 nM, respectively.

As for `Cn1nc(-c2ccc(F)cc2)c(-c2ccc3nc(NC(=O)c4ccnc(F)c4)cn3n2)c1C1CCN(C[C@H](O)C(F)(F)F)CC1` [Compound 159, (S)-2-Fluoro-N-(6-(3-(4-fluorophenyl)-1-methyl-5-(1-(3,3,3-trifluoro-2-hydroxypropyl)piperidin-4-yl)-1H-pyrazol-4-yl)imidazo[1,2-b]pyridazin-2-yl)isonicotinamide], the IC50 on CK1ε was found to be 1.4 nM; against CK1δ, 0.4 nM.

Consider `Cc1nc(-c2ccncc2)sc1C(=O)Nc1cn2nc(-c3cn(C4CC4)nc3-c3ccc(F)cc3)ccc2n1` [Compound 111, N-(6-(1-cyclopropyl-3-(4-fluorophenyl)-1H-pyrazol-4-yl)imidazo[1,2-b]pyridazin-2-yl)-4-methyl-2-(pyridin-4-yl)thiazole-5-carboxamide], for which the IC50 came out at 35 nM at CK1ε and 6.2 nM at CK1δ.

As to `Cc1nc(C(F)(F)F)ccc1C(=O)Nc1cn2nc(-c3cn(C)nc3-c3ccc(F)cc3)ccc2n1` [Compound 95, N-(6-(3-(4-fluorophenyl)-1-methyl-1H-pyrazol-4-yl)imidazo[1,2-b]pyridazin-2-yl)-2-methyl-6-(trifluoromethyl)nicotinamide], the IC50 against CK1ε worked out at 17.2 nM; against CK1δ it was 6.5 nM.

In the case of `Cc1nc(-c2ccncc2)sc1C(=O)Nc1cn2nc(-c3cn(C)nc3-c3ccc(F)cc3)ccc2n1` [Compound 4, N-(6-(3-(4-fluorophenyl)-1-methyl-1H-pyrazol-4-yl)imidazo[1,2-b]pyridazin-2-yl)-4-methyl-2-(pyridin-4-yl)thiazol-5-carboxamide], the IC50 on CK1ε came to 13.7 nM; against CK1δ, 3.7 nM.

`Cn1cc(-c2ccc3nc(NC(=O)c4cc(F)cc(F)c4)cn3n2)c(-c2ccc(F)cc2)n1` [Compound 43, 3,5-difluoro-N-(6-(3-(4-fluorophenyl)-1-methyl-1H-pyrazol-4-yl)imidazo[1,2-b]pyridazin-2-yl)benzamide]: the IC50 at CK1ε is 15.8 nM; against CK1δ, 4.8 nM.

As for `Cn1cc(-c2ccc3nc(NC(=O)c4ncccn4)cn3n2)c(-c2ccc(F)cc2)n1` [Compound 29, N-(6-(3-(4-fluorophenyl)-1-methyl-1H-pyrazol-4-yl)imidazo[1,2-b]pyridazin-2-yl)pyrimidine-2-carboxamide], the results for the IC50 at CK1ε and at CK1δ were 48.1 nM and 16 nM, respectively.

For the molecule `Cn1nc(-c2ccc(F)cc2)c(-c2ccc3nc(NC(=O)c4ccnc(N5CCOCC5)c4)cn3n2)c1C1CCNCC1` [Compound 160, N-(6-(3-(4-Fluorophenyl)-1-methyl-5-(piperidin-4-yl)-1H-pyrazol-4-yl)imidazo[1,2-b]pyridazin-2-yl)-2-morpholinoisonicotinamide], the IC50 at CK1ε came to 1 nM; against CK1δ, 1.5 nM.

For the molecule `Cn1cc(-c2ccc3nc(NC(=O)c4cc(Cl)nc5ccccc45)cn3n2)c(-c2ccc(F)cc2)n1` [Compound 2, 2-chloro-N-(6-(3-(4-fluorophenyl)-1-methyl-1H-pyrazol-4-yl)imidazo[1,2-b]pyridazin-2-yl)quinoline-4-carboxamide], the IC50 amounted to 19.2 nM against CK1ε and 1.3 nM on CK1δ.

As for `Cn1nc(-c2ccc(F)cc2)c(-c2ccc3nc(NC(=O)c4ccnc(N5CCOCC5)c4)cn3n2)c1C1CCN(CCCF)CC1` [Compound 162, N-(6-(3-(4-Fluorophenyl)-5-(1-(3-fluoropropyl)piperidin-4-yl)-1-methyl-1H-pyrazol-4-yl)imidazo[1,2-b]pyridazin-2-yl)-2-morpholinoisonicotinamide], the IC50 at CK1ε came out at 17.5 nM; against CK1δ, 0.5 nM.

`Cn1cc(-c2ccc3nc(NC(=O)c4cncs4)cn3n2)c(-c2ccc(F)cc2)n1` [Compound 28, N-(6-(3-(4-fluorophenyl)-1-methyl-1H-pyrazol-4-yl)imidazo[1,2-b]pyridazin-2-yl) thiazole-5-carboxamide]: the IC50 was determined as 6.6 nM at CK1ε and 3.1 nM at CK1δ.

Consider `Cn1cc(-c2ccc3nc(NC(=O)c4ncc(-c5ccccn5)s4)cn3n2)c(-c2ccc(F)cc2)n1` [Compound 82, N-(6-(3-(4-fluorophenyl)-1-methyl-1H-pyrazol-4-yl)imidazo[1,2-b]pyridazin-2-yl)-5-(pyridin-2-yl)thiazole-2-carboxamide], for which the IC50 against CK1ε was 71.5 nM; on CK1δ it was 3.3 nM.

Turning to `Cn1nc(-c2ccc(F)cc2)c(-c2ccc3nc(NC(=O)c4ccnc(N5CCOCC5)c4)cn3n2)c1N1CCN(CCCF)CC1` [Compound 139, N-(6-(3-(4-Fluorophenyl)-5-(4-(3-fluoropropyl)piperazin-1-yl)-1-methyl-1H-pyrazol-4-yl)imidazo[1,2-b]pyridazin-2-yl)-2-morpholinoisonicotinamide], the half-inhibitory concentration (IC50) on CK1ε turned out to be 9.3 nM; on CK1δ, 1.4 nM.

Turning to `CN(C)c1ccc(C(=O)Nc2cn3nc(-c4cn(C)nc4-c4ccc(F)cc4)ccc3n2)cn1` [Compound 66, 6-(dimethylamino)-N-(6-(3-(4-fluorophenyl)-1-methyl-1H-pyrazol-4-yl)imidazo[1,2-b]pyridazin-2-yl)nicotinamide], the figures for the IC50 against CK1ε and on CK1δ were 6.6 nM and 2.8 nM, respectively.

`Cn1nc(-c2ccc(F)cc2)c(-c2ccc3nc(NC(=O)c4ccnc(F)c4)cn3n2)c1C1CCN(Cc2ccon2)CC1` [Compound 150, 2-Fluoro-N-(6-(3-(4-fluorophenyl)-5-(1-(isoxazol-3-ylmethyl)piperidin-4-yl)-1-methyl-1H-pyrazol-4-yl)imidazo[1,2-b]pyridazin-2-yl)isonicotinamide]: the IC50 came to 1 nM at CK1ε and 1.1 nM at CK1δ.

Take `O=C(Nc1cn2nc(-c3cn(C4CC4)nc3-c3ccc(F)cc3)ccc2n1)c1csc(-c2ccncc2)n1` [Compound 103, N-(6-(1-Cyclopropyl-3-(4-fluorophenyl)-1H-pyrazol-4-yl)imidazo[1,2-b]pyridazin-2-yl)-2-(pyridin-4-yl)thiazole-4-carboxamide]: the IC50 on CK1ε was determined as 74.9 nM; against CK1δ it was 8.5 nM.

Consider `Cn1nc(-c2ccc(F)cc2)c(-c2ccc3nc(NC(=O)c4ccnc(N5CCOCC5)c4)cn3n2)c1C1CCN(CC(N)=O)CC1` [Compound 163, N-(6-(5-(1-(2-Amino-2-oxoethyl)piperidin-4-yl)-3-(4-fluorophenyl)-1-methyl-1H-pyrazol-4-yl)imidazo[1,2-b]pyridazin-2-yl)-2-morpholinoisonicotinamide], for which the figures for the IC50 on CK1ε and against CK1δ were 0.6 nM and 0.4 nM, respectively.

Consider `Cn1nc(-c2ccc(F)cc2)c(-c2ccc3nc(NC(=O)c4ccncc4)cn3n2)c1C1CCNCC1` [Compound 164, N-(6-(3-(4-Fluorophenyl)-1-methyl-5-(piperidin-4-yl)-1H-pyrazol-4-yl)imidazo[1,2-b]pyridazin-2-yl)isonicotinamide], for which the IC50 on CK1ε amounted to 3.3 nM; at CK1δ, 0.9 nM.

Turning to `Cc1nc(-c2ccccc2)sc1C(=O)Nc1cn2nc(-c3cn(C)nc3-c3ccc(F)cc3)ccc2n1` [Compound 7, N-(6-(3-(4-fluorophenyl)-1-methyl-1H-pyrazol-4-yl)imidazo[1,2-b]pyridazin-2-yl)-4-methyl-2-phenylthiazol-5-carboxamide], the figures for the IC50 against CK1ε and against CK1δ were 34.1 nM and 8.3 nM, respectively.

With `Cn1cc(-c2ccc3nc(NC(=O)c4ccccc4)c(Br)n3n2)c(-c2ccc(F)cc2)n1` [Compound 189, N-(3-Bromo-6-(3-(4-fluorophenyl)-1-methyl-1H-pyrazol-4-yl)imidazo[1,2-b]pyridazin-2-yl)benzamide], the results for the IC50 at CK1ε and against CK1δ were 257 nM and 38.8 nM, respectively.

Turning to `Cn1nc(-c2ccc(F)cc2)c(-c2ccc3nc(NC(=O)c4ccnc(F)c4)cn3n2)c1C1CCN(CCC#N)CC1` [Compound 156, N-(6-(5-(1-(2-Cyanoethyl)piperidin-4-yl)-3-(4-fluorophenyl)-1-methyl-1H-pyrazol-4-yl)imidazo[1,2-b]pyridazin-2-yl)-2-fluoroisonicotinamide], the IC50 was found to be 2.6 nM at CK1ε and 0.4 nM against CK1δ.

`COc1ccncc1C(=O)Nc1cn2nc(-c3cn(C)nc3-c3ccc(F)cc3)ccc2n1` [Compound 64, N-(6-(3-(4-fluorophenyl)-1-methyl-1H-pyrazol-4-yl)imidazo[1,2-b]pyridazin-2-yl)-4-methoxynicotinamide]: the IC50 at CK1ε was 38.5 nM; on CK1δ it was 7.1 nM.

For the molecule `Cn1cc(-c2ccc3nc(NC(=O)c4ccc(C(F)(F)F)cn4)cn3n2)c(-c2ccc(F)cc2)n1` [Compound 74, N-(6-(3-(4-fluorophenyl)-1-methyl-1H-pyrazol-4-yl)imidazo[1,2-b]pyridazin-2-yl)-5-(trifluoromethyl) picolinamide], the results for the IC50 on CK1ε and at CK1δ were 232 nM and 34.6 nM, respectively.

The values above are taken from patent US9475817B2 (BRISTOL-MYERS SQUIBB COMPANY, priority 2012, dated 2016).
